Results published in ChEMBL document CHEMBL1201862, “PubChem BioAssay data set” (2004).
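Dose response: 5 concentrations. Exposure: 48 h. Format: 96-well plates. Endpoint: linear interpolation; highest concentration if not reached. Here, GI50 denotes the concentration required for 50% inhibition of growth.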 The source made the active and inactive calls. Cut-off read from the data, not from the text of the source: active = GI50 up to about 1.1 µM and inactive = higher.

Legend:
Assay in all cases: NCI anticancer screen, dose series, 48 h
[1] = test system: RXF 631
[2] = test system: UACC-62
[3] = test system: HCT-15
[4] = test system: COLO 205
[5] = test system: DMS-273
[6] = test system: SF-295
[7] = test system: K562
[8] = test system: DMS-114
[9] = test system: 786-0
[10] = test system: OVCAR-4
[11] = test system: KM-20L2
[12] = test system: ACHN
[13] = test system: U-251
[14] = test system: SF-268
[15] = test system: XF498
[16] = test system: HOP-62
[17] = test system: CAKI-1
[18] = test system: SK-MEL-5
[19] = test system: A498
[20] = test system: OVCAR-5
[21] = test system: OVCAR-3
[22] = test system: LOX IMVI
[23] = test system: IGROV-1
[24] = test system: UO-31
[25] = test system: NCI-H522
[26] = test system: HOP-92
[27] = test system: SNB-78
[28] = test system: EKVX
[29] = test system: A549
[30] = test system: HT-29
[31] = test system: TK-10
[32] = test system: HL-60
[33] = test system: NCI-H460
[34] = test system: LXFL 529
[35] = test system: MOLT-4
[36] = test system: DLD-1
[37] = test system: HCC 2998
[38] = test system: SW-620
[39] = test system: UACC-257
[40] = test system: SK-MEL-2
[41] = test system: SK-OV-3
[42] = test system: SF-539
[43] = test system: RPMI-8226
[44] = test system: SNB-19
[45] = test system: NCI-H226
[46] = test system: CCRF-CEM
[47] = test system: M14
[48] = test system: Malme-3M
[49] = test system: M19-MEL
[50] = test system: NCI-H23
[51] = test system: SK-MEL-28
[52] = test system: HOP-18
[53] = test system: KM12
[54] = test system: SN12C
[55] = test system: HCT-116
[56] = test system: RXF 393
[57] = test system: SNB-75
[58] = test system: OVCAR-8

COc1ccc2c(c1)CCCN2CCCCCCCCCCN(CCC(C)C)CCC(C)C
GI50 [1]: 8.87 µM (inactive)
GI50 [2]: 12.2 µM (inactive)
GI50 [3]: 8.34 µM
GI50 [4]: 12.1 µM (inactive)
GI50 [5]: 10.1 µM (inactive)
GI50 [6]: 14.1 µM (inactive)
GI50 [7]: 4.24 µM (inactive)
GI50 [8]: 4.97 µM (inactive)
GI50 [9]: 14.2 µM (inactive)
GI50 [10]: 5.61 µM (inactive)
GI50 [11]: 10.2 µM (inactive)
GI50 [12]: 10.9 µM (inactive)
GI50 [13]: 13.2 µM (inactive)
GI50 [14]: 11.6 µM (inactive)
GI50 [15]: 7.89 µM (inactive)
GI50 [16]: 13.1 µM (inactive)
GI50 [17]: 14.7 µM (inactive)
GI50 [18]: 6.46 µM (inactive)
GI50 [19]: 16.7 µM (inactive)
GI50 [20]: 14.9 µM (inactive)
GI50 [21]: 4.79 µM (inactive)
GI50 [22]: 12.4 µM (inactive)
GI50 [23]: 12.2 µM (inactive)
GI50 [24]: 3.11 µM (inactive)
GI50 [25]: 2.2 µM (inactive)
GI50 [26]: 4.34 µM (inactive)
GI50 [27]: 16.8 µM (inactive)
GI50 [28]: 6.44 µM (inactive)
GI50 [29]: 11.7 µM (inactive)
GI50 [30]: 4.65 µM (inactive)
GI50 [31]: 16.4 µM (inactive)
GI50 [32]: 2.9 µM (inactive)
GI50 [33]: 11.2 µM (inactive)
GI50 [34]: 10.2 µM (inactive)
GI50 [35]: 5.58 µM (inactive)
GI50 [36]: 10.5 µM (inactive)
GI50 [37]: 6.98 µM (inactive)
GI50 [38]: 12.6 µM (inactive)
GI50 [39]: 14.9 µM (inactive)
GI50 [40]: 9.4 µM (inactive)
GI50 [41]: 19.3 µM (inactive)
GI50 [42]: 3.39 µM (inactive)
GI50 [43]: 2.26 µM (inactive)
GI50 [44]: 13.9 µM (inactive)
GI50 [45]: 14 µM (inactive)
GI50 [46]: 7.29 µM (inactive)
GI50 [47]: 13.3 µM (inactive)
GI50 [48]: 13.4 µM (inactive)
GI50 [49]: 15.3 µM (inactive)
GI50 [50]: 3.25 µM (inactive)
GI50 [51]: 13.6 µM (inactive)
GI50 [52]: 12.1 µM (inactive)
GI50 [53]: 4.55 µM (inactive)

COc1cccc2cc(C)c(C(=O)c3ccccc3)nc12
GI50 [1]: > 100 µM (inactive)
GI50 [2]: > 100 µM (inactive)
GI50 [54]: > 100 µM (inactive)
GI50 [3]: > 100 µM
GI50 [55]: > 100 µM (inactive)
GI50 [4]: > 100 µM (inactive)
GI50 [56]: > 100 µM (inactive)
GI50 [5]: > 100 µM (inactive)
GI50 [6]: > 100 µM (inactive)
GI50 [7]: > 100 µM (inactive)
GI50 [8]: > 100 µM (inactive)
GI50 [9]: > 100 µM (inactive)
GI50 [10]: > 100 µM (inactive)
GI50 [11]: > 100 µM (inactive)
GI50 [12]: > 100 µM (inactive)
GI50 [13]: > 100 µM (inactive)
GI50 [14]: > 100 µM (inactive)
GI50 [15]: > 100 µM (inactive)
GI50 [16]: > 100 µM (inactive)
GI50 [17]: > 100 µM (inactive)
GI50 [18]: > 100 µM (inactive)
GI50 [20]: > 100 µM (inactive)
GI50 [21]: > 100 µM (inactive)
GI50 [22]: > 100 µM (inactive)
GI50 [23]: > 100 µM (inactive)
GI50 [24]: > 100 µM (inactive)
GI50 [25]: > 100 µM (inactive)
GI50 [27]: > 100 µM (inactive)
GI50 [28]: > 100 µM (inactive)
GI50 [29]: > 100 µM (inactive)
GI50 [57]: 91.2 µM (inactive)
GI50 [31]: > 100 µM (inactive)
GI50 [34]: > 100 µM (inactive)
GI50 [35]: > 100 µM (inactive)
GI50 [36]: > 100 µM (inactive)
GI50 [37]: > 100 µM (inactive)
GI50 [38]: > 100 µM (inactive)
GI50 [39]: 82.2 µM (inactive)
GI50 [58]: > 100 µM (inactive)
GI50 [40]: > 100 µM (inactive)
GI50 [42]: > 100 µM (inactive)
GI50 [43]: > 100 µM (inactive)
GI50 [44]: > 100 µM (inactive)
GI50 [45]: > 100 µM (inactive)
GI50 [46]: > 100 µM (inactive)
GI50 [47]: > 100 µM (inactive)
GI50 [48]: > 100 µM (inactive)
GI50 [49]: > 100 µM (inactive)
GI50 [50]: > 100 µM (inactive)
GI50 [51]: > 100 µM (inactive)
GI50 [52]: > 100 µM (inactive)
GI50 [53]: > 100 µM (inactive)

COC(=O)/C(=N\Nc1nc(S)nn1N)C(C#N)c1ccc(Cl)cc1 (configuration not stated)
GI50 [1]: > 100 µM (inactive)
GI50 [2]: > 100 µM (inactive)
GI50 [54]: > 100 µM (inactive)
GI50 [3]: > 100 µM
GI50 [55]: > 100 µM (inactive)
GI50 [4]: > 100 µM (inactive)
GI50 [56]: > 100 µM (inactive)
GI50 [5]: > 100 µM (inactive)
GI50 [6]: > 100 µM (inactive)
GI50 [8]: > 100 µM (inactive)
GI50 [9]: > 100 µM (inactive)
GI50 [10]: > 100 µM (inactive)
GI50 [11]: > 100 µM (inactive)
GI50 [12]: > 100 µM (inactive)
GI50 [13]: > 100 µM (inactive)
GI50 [14]: > 100 µM (inactive)
GI50 [15]: > 100 µM (inactive)
GI50 [16]: > 100 µM (inactive)
GI50 [17]: > 100 µM (inactive)
GI50 [19]: > 100 µM (inactive)
GI50 [20]: > 100 µM (inactive)
GI50 [21]: > 100 µM (inactive)
GI50 [22]: > 100 µM (inactive)
GI50 [23]: > 100 µM (inactive)
GI50 [24]: > 100 µM (inactive)
GI50 [26]: > 100 µM (inactive)
GI50 [27]: > 100 µM (inactive)
GI50 [28]: > 100 µM (inactive)
GI50 [29]: > 100 µM (inactive)
GI50 [57]: > 100 µM (inactive)
GI50 [30]: > 100 µM (inactive)
GI50 [31]: > 100 µM (inactive)
GI50 [33]: > 100 µM (inactive)
GI50 [34]: > 100 µM (inactive)
GI50 [36]: > 100 µM (inactive)
GI50 [37]: > 100 µM (inactive)
GI50 [38]: > 100 µM (inactive)
GI50 [39]: > 100 µM (inactive)
GI50 [58]: > 100 µM (inactive)
GI50 [40]: > 100 µM (inactive)
GI50 [41]: > 100 µM (inactive)
GI50 [42]: > 100 µM (inactive)
GI50 [43]: > 100 µM (inactive)
GI50 [44]: > 100 µM (inactive)
GI50 [45]: > 100 µM (inactive)
GI50 [47]: > 100 µM (inactive)
GI50 [48]: > 100 µM (inactive)
GI50 [49]: > 100 µM (inactive)
GI50 [50]: > 100 µM (inactive)
GI50 [51]: > 100 µM (inactive)
GI50 [52]: > 100 µM (inactive)
GI50 [53]: > 100 µM (inactive)
